Reference: the NIST ThermoML archive (doi:10.1021/acs.jced.9b00752)
Several values for one entry are separate records, joined by “and”; a condition that tells them apart may be missing. Equal values may be shown once.

Assay: mn = molality of the nth substance listed, in mol/kg
Conditions: 100 kPa, Liquid, Vibrating tube method

N[C@@H](Cc1ccc(O)cc1)C(=O)O [3-(p-hydroxyphenyl)-L-alanine] + O
mass density
Conditions	273.65 K	274.15 K	274.65 K	275.15 K	275.65 K	276.15 K	276.65 K	277.15 K	277.65 K	278.15 K
m1 = 0.0005	999.883 kg/m3	999.909 kg/m3	999.932 kg/m3	999.95 kg/m3	999.963 kg/m3	999.972 kg/m3	999.98 kg/m3	999.979 kg/m3	999.978 kg/m3	999.972 kg/m3
m1 = 0.001	999.917 kg/m3	999.942 kg/m3	999.965 kg/m3	999.984 kg/m3	999.997 kg/m3	1000 kg/m3	1000.01 kg/m3	1000.01 kg/m3	1000.01 kg/m3	1000 kg/m3
m1 = 0.0011	999.943 kg/m3	999.97 kg/m3	999.993 kg/m3	1000.01 kg/m3	1000.02 kg/m3	1000.03 kg/m3	1000.04 kg/m3	1000.04 kg/m3	1000.04 kg/m3	1000.03 kg/m3
m1 = 0.0022	1000.01 kg/m3	1000.04 kg/m3	1000.06 kg/m3	1000.08 kg/m3	1000.09 kg/m3	1000.1 kg/m3	1000.11 kg/m3	1000.11 kg/m3	1000.11 kg/m3	1000.1 kg/m3
m1 = 0.0026	1000.03 kg/m3	1000.06 kg/m3	1000.08 kg/m3	1000.1 kg/m3	1000.11 kg/m3	1000.12 kg/m3	1000.13 kg/m3	1000.13 kg/m3	1000.13 kg/m3	1000.12 kg/m3
m1 = 0.0035	1000.1 kg/m3	1000.13 kg/m3	1000.15 kg/m3	1000.17 kg/m3	1000.18 kg/m3	1000.19 kg/m3	1000.19 kg/m3	1000.2 kg/m3	1000.19 kg/m3	1000.19 kg/m3
m1 = 0.0036	1000.1 kg/m3	1000.13 kg/m3	1000.15 kg/m3	1000.17 kg/m3	1000.18 kg/m3	1000.19 kg/m3	1000.2 kg/m3	1000.2 kg/m3	1000.19 kg/m3	1000.19 kg/m3
m1 = 0.0038	1000.11 kg/m3	1000.13 kg/m3	1000.15 kg/m3	1000.17 kg/m3	1000.18 kg/m3	1000.19 kg/m3	1000.2 kg/m3	1000.2 kg/m3	1000.2 kg/m3	1000.19 kg/m3
m1 = 0.0045	1000.16 kg/m3 and 1000.17 kg/m3	1000.18 kg/m3 and 1000.2 kg/m3	1000.21 kg/m3 and 1000.22 kg/m3	1000.23 kg/m3 and 1000.24 kg/m3	1000.24 kg/m3 and 1000.25 kg/m3	1000.25 kg/m3	1000.25 kg/m3 and 1000.26 kg/m3	1000.25 kg/m3 and 1000.26 kg/m3	1000.25 kg/m3 and 1000.26 kg/m3	1000.24 kg/m3 and 1000.25 kg/m3
m1 = 0.0047	1000.16 kg/m3	1000.19 kg/m3	1000.21 kg/m3	1000.23 kg/m3	1000.24 kg/m3	1000.25 kg/m3	1000.26 kg/m3	1000.26 kg/m3	1000.25 kg/m3	1000.25 kg/m3
m1 = 0.0053	1000.21 kg/m3 and 1000.22 kg/m3	1000.23 kg/m3 and 1000.25 kg/m3	1000.26 kg/m3 and 1000.27 kg/m3	1000.27 kg/m3 and 1000.28 kg/m3	1000.29 kg/m3 and 1000.3 kg/m3	1000.29 kg/m3 and 1000.31 kg/m3	1000.3 kg/m3 and 1000.31 kg/m3	1000.3 kg/m3 and 1000.31 kg/m3	1000.3 kg/m3 and 1000.31 kg/m3	1000.29 kg/m3 and 1000.3 kg/m3
m1 = 0.0055	1000.21 kg/m3	1000.23 kg/m3	1000.25 kg/m3	1000.27 kg/m3	1000.29 kg/m3	1000.29 kg/m3	1000.3 kg/m3	1000.3 kg/m3	1000.3 kg/m3	1000.29 kg/m3
